Results published in the NIST ThermoML archive (doi:10.1016/j.jct.2012.03.034).
± gives the expanded uncertainty stated by the source.

Assay: xn = mol fraction of the nth substance listed
Conditions: 101 kPa, Liquid; for speed of sound: Linear variable-path acoustic interferometer; for mass density: Vibrating tube method; for viscosity: dual vibrating plate viscometer, AandD Co. Ltd Model SV-10

## CC(=O)O.CCN(CC)CC [triethylammonium acetate] + CN1CCCC1=O
298.15 K, x1 = 0.0138
  speed of sound: 1564 ± 2 m/s
  mass density: 1026.09 ± 0.3 kg/m3
  viscosity: 1.61 ± 0.03 mPa·s
298.15 K, x1 = 0.0302
  speed of sound: 1559 ± 2 m/s
  mass density: 1026.34 ± 0.3 kg/m3
  viscosity: 1.76 ± 0.04 mPa·s
298.15 K, x1 = 0.0813
  speed of sound: 1556 ± 2 m/s
  mass density: 1026.88 ± 0.3 kg/m3
  viscosity: 2.79 ± 0.06 mPa·s
298.15 K, x1 = 0.117
  speed of sound: 1554 ± 2 m/s
  mass density: 1026.93 ± 0.3 kg/m3
  viscosity: 3.21 ± 0.07 mPa·s
298.15 K, x1 = 0.1733
  speed of sound: 1555 ± 2 m/s
  mass density: 1026.39 ± 0.31 kg/m3
  viscosity: 3.79 ± 0.08 mPa·s
298.15 K, x1 = 0.2751
  speed of sound: 1560 ± 2 m/s
  mass density: 1023.97 ± 0.3 kg/m3
  viscosity: 4.02 ± 0.08 mPa·s
298.15 K, x1 = 0.3189
  speed of sound: 1566 ± 2 m/s
  mass density: 1022.57 ± 0.31 kg/m3
  viscosity: 3.83 ± 0.08 mPa·s
298.15 K, x1 = 0.3865
  speed of sound: 1578 ± 2 m/s
  mass density: 1019.96 ± 0.3 kg/m3
  viscosity: 3.58 ± 0.07 mPa·s
298.15 K, x1 = 0.5133
  speed of sound: 1603 ± 2 m/s
  mass density: 1015.18 ± 0.3 kg/m3
  viscosity: 3.4 ± 0.07 mPa·s
298.15 K, x1 = 0.6561
  speed of sound: 1648 ± 2 m/s
  mass density: 1010.89 ± 0.3 kg/m3
  viscosity: 4.71 ± 0.1 mPa·s
298.15 K, x1 = 0.8181
  speed of sound: 1714 ± 2 m/s
  mass density: 1009.29 ± 0.3 kg/m3
  viscosity: 10.14 ± 0.22 mPa·s
298.15 K, x1 = 0.926
  speed of sound: 1776 ± 2 m/s
  mass density: 1011.5 ± 0.3 kg/m3
  viscosity: 17.25 ± 0.36 mPa·s
298.15 K, x1 = 0.9642
  speed of sound: 1799 ± 2 m/s
  mass density: 1012.97 ± 0.31 kg/m3
  viscosity: 20.16 ± 0.43 mPa·s
298.15 K, x1 = 1
  speed of sound: 1840 ± 2 m/s
  mass density: 1015.86 ± 0.31 kg/m3
  viscosity: 24.12 ± 0.5 mPa·s
303.15 K, x1 = 0.0138
  speed of sound: 1555 ± 2 m/s
  mass density: 1024.21 ± 0.31 kg/m3
  viscosity: 1.52 ± 0.03 mPa·s
303.15 K, x1 = 0.0302
  speed of sound: 1555 ± 2 m/s
  mass density: 1024.48 ± 0.3 kg/m3
  viscosity: 1.84 ± 0.04 mPa·s
303.15 K, x1 = 0.0813
  speed of sound: 1553 ± 2 m/s
  mass density: 1024.64 ± 0.3 kg/m3
  viscosity: 2.67 ± 0.06 mPa·s
303.15 K, x1 = 0.117
  speed of sound: 1554 ± 2 m/s
  mass density: 1024.37 ± 0.31 kg/m3
  viscosity: 3.1 ± 0.06 mPa·s
303.15 K, x1 = 0.1733
  speed of sound: 1555 ± 2 m/s
  mass density: 1023.53 ± 0.31 kg/m3
  viscosity: 3.42 ± 0.07 mPa·s
303.15 K, x1 = 0.2751
  speed of sound: 1561 ± 2 m/s
  mass density: 1020.86 ± 0.31 kg/m3
  viscosity: 3.62 ± 0.07 mPa·s
303.15 K, x1 = 0.3189
  speed of sound: 1566 ± 2 m/s
  mass density: 1019.42 ± 0.31 kg/m3
  viscosity: 3.55 ± 0.07 mPa·s
303.15 K, x1 = 0.3865
  speed of sound: 1579 ± 2 m/s
  mass density: 1016.89 ± 0.3 kg/m3
  viscosity: 3.18 ± 0.07 mPa·s
303.15 K, x1 = 0.5133
  speed of sound: 1602 ± 2 m/s
  mass density: 1012.16 ± 0.3 kg/m3
  viscosity: 2.7 ± 0.06 mPa·s
303.15 K, x1 = 0.6561
  speed of sound: 1645 ± 2 m/s
  mass density: 1007.69 ± 0.3 kg/m3
  viscosity: 3.42 ± 0.07 mPa·s
303.15 K, x1 = 0.8181
  speed of sound: 1713 ± 2 m/s
  mass density: 1005.54 ± 0.3 kg/m3
  viscosity: 8.21 ± 0.17 mPa·s
303.15 K, x1 = 0.926
  speed of sound: 1769 ± 2 m/s
  mass density: 1006.58 ± 0.3 kg/m3
  viscosity: 14.2 ± 0.3 mPa·s
303.15 K, x1 = 0.9642
  speed of sound: 1797 ± 2 m/s
  mass density: 1007.74 ± 0.3 kg/m3
  viscosity: 17 ± 0.36 mPa·s
303.15 K, x1 = 1
  speed of sound: 1824 ± 2 m/s
  mass density: 1009.58 ± 0.3 kg/m3
  viscosity: 19.6 ± 0.41 mPa·s
